Assay type in all cases: cell-based
For one series, the system named is BGM cells. Nature of the series: Cytotoxicity test (cell morphology, trypan blue viability): non-toxic dose on BGM cells. As to conditions: BGM cell line, 72 h. As to the method:
(§1) It was carried out in accordance with the methods that were reported. In 1 mL of ethyl alcohol, 100 mg of sample was dissolved. A sample of 24 μL of 100× antibiotic–antimycotic mixture was added to 1 mL of sample to decontaminate it. Then, bi-fold dilutions were done to 100 μL of the original dissolved sample, and 100 μL of each dilution was inoculated in Hep-2, BGM, MA104, and CaCo-2 cell lines (obtained from the Holding Company for Biological Products & Vaccines VACSERA, Giza, Egypt) previously cultured in 96 multi well plates (Greiner-Bio one, Frickenhausen, Germany) to estimate the sample’s non-toxic dose. Inverted light microscope cell morphology and trypan blue dye exclusion cell viability tests were used for cytotoxicity assay.
(§2) The Hep-2, BGM, MA104, and CaCo-2 cell cultures were each seeded at a concentration of 2 × 10^5 cells/mL and grown individually in 96-well tissue culture plates (Greiner-Bio one, Frickenhausen, Germany). After an incubation period of 24 h at 37 °C in an atmosphere containing 5% (v/v) CO2, cell monolayers were confluent. At this point, the media was withdrawn from each well and replaced with 100 μL of bi-fold dilutions of the sample examined that were prepared in Dulbecco’s Modified Eagle Medium (DMEM) (GIBCO BRL, Darmstadt, Germany). For the purpose of cell controls, 100 μL of DMEM containing no samples was added. All the cultures were kept in an atmosphere with 5% (v/v) CO2 that was humidified and incubated at 37 °C for a total of 72 h. […] Morphology shifts were observed and scored.
(§3) Trypan blue dye was excluded from the experiment. […]. In 12-well tissue culture plates, Hep-2, BGM, MA104, and CaCo-2 cells (2 × 10^5 cells/mL) were cultivated (Greiner-Bio one, Frickenhausen, Germany). Following an incubation period of 24 h, 100 μL of tested sample dilutions, also known as bi-fold dilutions, were added to each well, and the results were examined in the same manner as described previously. After 72 h, the medium was removed, the cells were trypsinized, and an equal amount of an aqueous solution containing 0.4% (w/v) trypan blue dye was added. Counting the number of viable cells required phase contrast microscopes.

For the next series, the system named is MA104 cells. Nature of the series: Cytotoxicity test (cell morphology, trypan blue viability): non-toxic dose on MA104 cells. Conditions: MA104 cell line, 72 h. As to the method:
as §1, §2, §3

The next series deals with Hep-2 cells. Nature of the series: Cytotoxicity test (cell morphology, trypan blue viability): non-toxic dose on Hep-2 cells. Conditions: Hep-2 cell line, 72 h. As to the method:
as §1, §2, §3

Series [1] has as its system human rotavirus Wa strain. Put plainly: Rotavirus titers by plaque assay after treatment with non-toxic doses. Conditions: virus 1 × 10^7 PFU/mL, Mean ± SD of three results. As to the method:
The Rotavirus Wa strain, at a concentration of 1 × 10^7 PFU/mL, was mixed with non-toxic dilutions in a volume of 100 μL. At a temperature of 37 °C and 10 μg/mL of trypsin, the rotavirus stocks became infectious after 30 min. The mixture was incubated for half an hour at 37 °C. The Hep 2, BGM, and MA104 cell lines were seeded into the wells of 12 multi-well plates and then injected with 100 μL (10-fold) dilutions of the treated and untreated rotavirus Wa strain after an hour of adsorption at 37 °C in an atmosphere containing 5% CO2-water vapor without shaking. The plates were bounced at regular intervals to prevent the cells from drying out. Following the adsorption step, 1 mL of a 2× media consisting of Dulbecco’s Modified Eagle Medium, Gibco-BRL (DMEM), and 1% agarose were added to each well. The mixture of medium and agarose was given an additional 0.5 μg/mL of trypsin so that it could test for the rotavirus Wa strain. The plates were kept in an incubator with an environment containing 5% CO2 and water vapor at 37 °C. After being fixed with formalin and stained with crystal violet at a concentration of 0.4%, the plaques were counted. After that, the PFU/mL viral titers were determined.

Data on 16 molecules can be found in paper PMC10047800, “Evaluation of Some Benzo[g]Quinazoline Derivatives as Antiviral Agents against Human Rotavirus Wa Strain: Biological Screening and Docking Study” (Current Issues in Molecular Biology, 2023).

With `Cn1c(=S)[nH]c2cc3ccccc3cc2c1=O` [Compound 1], the “Non-Toxic Doses” value is recorded as 60 µg/mL in the series with BGM cells, 65 µg/mL in the series on MA104 cells and 65 µg/mL in the series with Hep-2 cells.
Consider `CCn1c(=S)[nH]c2cc3ccccc3cc2c1=O` [Compound 2], for which the “Non-Toxic Doses” value in the series with BGM cells, in the series with MA104 cells and with Hep-2 cells was 60 µg/mL in each case.
`O=c1c2cc3ccccc3cc2[nH]c(=S)n1Cc1ccccc1` [Compound 3]: the “Non-Toxic Doses” value turned out to be 60 µg/mL in the series on BGM cells, 75 µg/mL in the series on MA104 cells and 70 µg/mL with Hep-2 cells.
The corresponding values for `COc1cccc(CSc2nc3cc4ccccc4cc3c(=O)n2C)c1` [Compound 4] are 50 µg/mL, 55 µg/mL and 55 µg/mL.
In the same order, the values of `CCn1c(SCc2cccc(OC)c2)nc2cc3ccccc3cc2c1=O` [Compound 5] are 55 µg/mL, 55 µg/mL and 60 µg/mL.
`COc1cccc(CSc2nc3cc4ccccc4cc3c(=O)n2Cc2ccccc2)c1` [Compound 6]: the “Non-Toxic Doses” value with BGM cells, with MA104 cells and in the series on Hep-2 cells was 65 µg/mL in each case. The “% Reduction of Rotavirus Wa strain” value in series [1] is 20% ± 4%.
`CCn1c(SCc2ccc(Cl)cc2)nc2cc3ccccc3cc2c1=O` [Compound 7]: the “Non-Toxic Doses” value in the series with BGM cells, with MA104 cells and in the series with Hep-2 cells was 60 µg/mL each time.
Turning to `O=c1c2cc3ccccc3cc2nc(SCc2ccc(Cl)cc2)n1Cc1ccccc1` [Compound 8], the “Non-Toxic Doses” value with BGM cells, with MA104 cells and in the series on Hep-2 cells was 50 µg/mL in each case.
Turning to `Cn1c(SCc2cccc(C#N)c2)nc2cc3ccccc3cc2c1=O` [Compound 9], the “Non-Toxic Doses” value with BGM cells is 65 µg/mL; in the series on MA104 cells, 75 µg/mL; in the series with Hep-2 cells, 70 µg/mL.
In the same order, the values of `CCn1c(SCc2ccc(C#N)cc2)nc2cc3ccccc3cc2c1=O` [Compound 10] are 50 µg/mL, 55 µg/mL and 50 µg/mL.
Consider `N#Cc1ccc(CSc2nc3cc4ccccc4cc3c(=O)n2Cc2ccccc2)cc1` [Compound 11], for which the “Non-Toxic Doses” value with BGM cells, in the series with MA104 cells and in the series with Hep-2 cells was 65 µg/mL each time.
Turning to `CCn1c(SCCCN2C(=O)c3ccccc3C2=O)nc2cc3ccccc3cc2c1=O` [Compound 12], the “Non-Toxic Doses” value turned out to be 25 µg/mL in the series with BGM cells, 30 µg/mL in the series on MA104 cells and 30 µg/mL with Hep-2 cells.
`O=C1c2ccccc2C(=O)N1CCCSc1nc2cc3ccccc3cc2c(=O)n1Cc1ccccc1` [Compound 13]: the results for the “Non-Toxic Doses” value in the series on BGM cells, with MA104 cells and with Hep-2 cells were 40 µg/mL, 50 µg/mL and 45 µg/mL, respectively. Also, the “% Reduction of Rotavirus Wa strain” value in series [1] is 20% ± 3%.
Regarding `Cn1c(NN)nc2cc3ccccc3cc2c1=O` [Compound 14], the “Non-Toxic Doses” value stood at 55 µg/mL with BGM cells, 60 µg/mL with MA104 cells and 60 µg/mL in the series with Hep-2 cells.
As to `CCn1c(NN)nc2cc3ccccc3cc2c1=O` [Compound 15], the “Non-Toxic Doses” value in the series with BGM cells, in the series on MA104 cells and in the series on Hep-2 cells was 55 µg/mL throughout.
`NNc1nc2cc3ccccc3cc2c(=O)n1Cc1ccccc1` [Compound 16]: the “Non-Toxic Doses” value was determined as 60 µg/mL with BGM cells, 60 µg/mL in the series on MA104 cells and 65 µg/mL in the series with Hep-2 cells.
